{
  "source": "patent US8318504B2",
  "about": "“MRP2 efflux pathway prognostic method” (priority 2009, dated 2012)",
  "key": {"ABCC3": {"molecular_target": "T1, ABCC3 (Homo sapiens, UniProt O15438)", "T1 construct": "made in house; host or cells: Sf21 insect cells, baculovirus (gift from Borst); plasma membrane vesicles", "T1 sequence (O15438 whole entry)": "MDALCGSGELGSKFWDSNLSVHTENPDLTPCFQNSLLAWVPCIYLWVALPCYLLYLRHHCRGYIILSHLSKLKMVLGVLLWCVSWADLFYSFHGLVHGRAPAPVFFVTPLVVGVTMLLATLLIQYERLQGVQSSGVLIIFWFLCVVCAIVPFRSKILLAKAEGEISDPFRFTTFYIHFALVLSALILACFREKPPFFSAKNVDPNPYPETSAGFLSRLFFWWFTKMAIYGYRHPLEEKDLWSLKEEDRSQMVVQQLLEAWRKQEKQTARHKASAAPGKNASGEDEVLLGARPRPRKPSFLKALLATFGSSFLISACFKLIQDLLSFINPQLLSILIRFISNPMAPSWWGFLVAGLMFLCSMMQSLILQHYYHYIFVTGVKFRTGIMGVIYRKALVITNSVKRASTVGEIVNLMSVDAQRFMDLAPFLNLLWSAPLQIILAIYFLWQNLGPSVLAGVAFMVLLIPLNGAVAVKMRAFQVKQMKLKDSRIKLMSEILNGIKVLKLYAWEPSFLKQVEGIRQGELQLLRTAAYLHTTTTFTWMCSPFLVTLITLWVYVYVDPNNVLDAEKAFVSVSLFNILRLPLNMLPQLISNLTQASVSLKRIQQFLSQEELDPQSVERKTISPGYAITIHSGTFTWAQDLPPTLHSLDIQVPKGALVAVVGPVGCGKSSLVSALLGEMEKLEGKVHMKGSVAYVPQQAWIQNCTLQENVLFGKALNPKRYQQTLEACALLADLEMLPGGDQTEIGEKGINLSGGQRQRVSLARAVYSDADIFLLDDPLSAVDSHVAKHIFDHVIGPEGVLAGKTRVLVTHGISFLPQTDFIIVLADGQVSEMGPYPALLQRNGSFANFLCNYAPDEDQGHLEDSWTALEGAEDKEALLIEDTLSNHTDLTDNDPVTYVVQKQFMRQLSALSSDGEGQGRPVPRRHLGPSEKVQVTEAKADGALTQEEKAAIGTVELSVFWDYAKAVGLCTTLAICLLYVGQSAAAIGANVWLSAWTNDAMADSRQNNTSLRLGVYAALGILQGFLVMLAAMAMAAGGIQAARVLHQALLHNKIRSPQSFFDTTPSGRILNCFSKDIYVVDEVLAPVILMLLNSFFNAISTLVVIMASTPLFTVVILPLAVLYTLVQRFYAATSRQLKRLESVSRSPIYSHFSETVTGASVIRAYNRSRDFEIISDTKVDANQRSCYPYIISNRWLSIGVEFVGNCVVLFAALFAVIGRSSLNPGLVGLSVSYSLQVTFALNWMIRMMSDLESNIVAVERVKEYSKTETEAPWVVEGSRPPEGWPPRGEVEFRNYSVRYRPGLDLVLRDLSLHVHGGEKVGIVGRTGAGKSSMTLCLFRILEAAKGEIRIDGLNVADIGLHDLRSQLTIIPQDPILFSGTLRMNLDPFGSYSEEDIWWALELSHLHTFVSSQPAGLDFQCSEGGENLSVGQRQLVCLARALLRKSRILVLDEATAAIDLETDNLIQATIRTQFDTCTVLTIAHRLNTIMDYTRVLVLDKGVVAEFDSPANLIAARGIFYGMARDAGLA", "assay": "ATP-dependent transport of CLF into Sf21 membrane vesicles containing ABCC3", "type": "biochemical", "experimental": "(§1) The production of recombinant baculovirus was as described by de Waart et al. [Liver Int 2006 April; 26(3):362-368]. ABCC3 and ABCG2-recombinant baculovirus were a kind gift from Borst [Breedveld P. et al., Cancer Res 2004 Aug. 15; 64(16):5804-5811 and Borst P. et al., J Biol Chem 2001 Dec. 7; 276(49):46400-46407.]. ABCB11-recombinant baculovirus was a kind gift from Thompson [Thompson R J et al., Gastroenterology 2002 November; 123(5):1649-1658]. Sf21 cells grown at 27° C. were infected with ABCB11, ABCC2, ABCC3 and ABCG2-cDNA containing baculovirus. Cells were harvested at 2-4 days after infection. Membrane vesicle preparation was as described by de Waart et al. [Liver Int 2006 April; 26(3):362-368].\nTransport studies with membrane vesicles were performed using the rapid filtration technique as described by Heijn M et al. [Am J Physiol 1992 January; 262(1 Pt 1):C104-C110]. Radiolabel was measured with a scintillation counter. When CLF was used as a probe, filters were placed in a glass tube, 0.1% Triton-X-100 was added and the tubes vortexed. Samples were pipetted in 96-well plates (Kartell, Noviglio, Italy) and the amount CLF quantitated by measurement of fluorescence at λexe 485 nm and λcm 520 nm using a NovoStar (BMG-labtech, Offenburg, Germany). […]"}, "OATP1B3": {"molecular_target": "T2, OATP1B3 (Homo sapiens, UniProt Q9NPD5)", "T2 construct": "expressed in transfected cells; host or cells: CHO cells (stably transfected; Treiber et al. 2007)", "T2 sequence (Q9NPD5 1-702)": "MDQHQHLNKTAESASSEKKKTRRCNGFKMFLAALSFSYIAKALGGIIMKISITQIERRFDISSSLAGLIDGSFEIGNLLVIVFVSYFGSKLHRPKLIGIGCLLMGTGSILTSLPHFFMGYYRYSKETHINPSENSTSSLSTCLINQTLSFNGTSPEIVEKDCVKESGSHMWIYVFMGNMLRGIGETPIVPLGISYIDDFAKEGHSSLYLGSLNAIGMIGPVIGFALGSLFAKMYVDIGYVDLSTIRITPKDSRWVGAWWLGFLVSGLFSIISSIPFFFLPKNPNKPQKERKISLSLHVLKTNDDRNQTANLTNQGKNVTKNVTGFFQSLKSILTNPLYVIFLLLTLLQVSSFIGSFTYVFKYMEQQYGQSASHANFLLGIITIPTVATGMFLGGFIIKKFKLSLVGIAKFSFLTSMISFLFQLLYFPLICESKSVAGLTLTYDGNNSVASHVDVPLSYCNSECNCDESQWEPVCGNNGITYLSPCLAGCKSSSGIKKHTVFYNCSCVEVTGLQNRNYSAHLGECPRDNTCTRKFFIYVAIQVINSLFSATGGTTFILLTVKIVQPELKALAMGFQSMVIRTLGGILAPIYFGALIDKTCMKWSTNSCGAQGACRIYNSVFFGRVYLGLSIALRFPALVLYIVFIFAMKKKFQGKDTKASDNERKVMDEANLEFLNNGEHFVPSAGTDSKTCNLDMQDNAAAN", "assay": "Uptake of CLF into CHO cells expressing OATP1B3", "type": "cell-based", "design": "Vmax of OATP1B3 mediated CLF transport: unit not given here", "experimental": "cDNA for human NTCP [Hagenbuch et al., J Clin Invest 1994 March; 93(3): 1326-1331] was cut with EcoRV and HindI and the coding region ligated into pcDNA5/FRT (Invitrogen, Life-Technologies, Carlsbad, Calif.). CHO FlpIn cells (Invitrogen, Life-Technologies) were transfected with the resulting construct using Lipofectamine® 2000 (Invitrogen, Life-Technologies). Stably transfected cells were selected with 550 μg Hygromycin-B in HAM-F12 medium (Gibco, Invitrogen, Life-Technologies). Transfected cells were cloned with the limiting dilution method. […] To further characterize the cloned cells, immunofluorescence localization of NTCP using a polyclonal antibody against NTCP [Kullak-Ublick G et al., Gastroenterology 1997 October; 113(4):1295-1305] was performed as described by Huber R D et al. [Am J Physiol Cell Physiol 2007 February; 292(2):[…]-[…]]. CHO cells expressing OATP1B1, OATP1B3 and OATP2B1 were described previously [Treiber et al., DMD 35:1400-1407, 2007]. For all transport experiments, cells grown on 3 cm culture dishes were cultured for 24 hours in media supplemented with 5 mmol/L sodium-butyrate to increase expression levels of transfected transporters [Palermo D P et al., J Biotechnol 1991 June; 19(1):35-47]. • Transport experiments with uptake of radioactively labeled substrates: These experiments were performed as described by Huber R D et al. […] Uptake was performed in the same buffers as for the radioactive substrates above. For visualization of CLF uptake, cells were immediately inspected with a Leica-DM-IRBE-inverted-microcope (Leica-Microsystems, Wetzlar, Germany) equipped with a Hamamatsu-ORKA-ER-camera (Hamamatsu-Photonoics, Japan). To determine uptake of CLF, cells were solubilized by the addition of 2 ml 1% (w/v) Triton-X-100. After complete solubilization, 1.5 ml was used to measure fluorescence in a Perkin-Elmer LS-5 luminescence-spectrometer set at λexe 486 nm (slit 10 nm) and λem 520 nm (slit 5 nm). Protein was determined with the bicinchoninic acid method using a kit from Interchim (Montfuçon, France). […]"}, "ABCB11": {"molecular_target": "T3, ABCB11 (Homo sapiens, UniProt O95342)", "T3 construct": "His tag (inferred from the anti-his probe used on the Western blot); made in house; host or cells: Sf21 insect cells, baculovirus (gift from Thompson); plasma membrane vesicles", "T3 sequence (O95342 whole entry)": "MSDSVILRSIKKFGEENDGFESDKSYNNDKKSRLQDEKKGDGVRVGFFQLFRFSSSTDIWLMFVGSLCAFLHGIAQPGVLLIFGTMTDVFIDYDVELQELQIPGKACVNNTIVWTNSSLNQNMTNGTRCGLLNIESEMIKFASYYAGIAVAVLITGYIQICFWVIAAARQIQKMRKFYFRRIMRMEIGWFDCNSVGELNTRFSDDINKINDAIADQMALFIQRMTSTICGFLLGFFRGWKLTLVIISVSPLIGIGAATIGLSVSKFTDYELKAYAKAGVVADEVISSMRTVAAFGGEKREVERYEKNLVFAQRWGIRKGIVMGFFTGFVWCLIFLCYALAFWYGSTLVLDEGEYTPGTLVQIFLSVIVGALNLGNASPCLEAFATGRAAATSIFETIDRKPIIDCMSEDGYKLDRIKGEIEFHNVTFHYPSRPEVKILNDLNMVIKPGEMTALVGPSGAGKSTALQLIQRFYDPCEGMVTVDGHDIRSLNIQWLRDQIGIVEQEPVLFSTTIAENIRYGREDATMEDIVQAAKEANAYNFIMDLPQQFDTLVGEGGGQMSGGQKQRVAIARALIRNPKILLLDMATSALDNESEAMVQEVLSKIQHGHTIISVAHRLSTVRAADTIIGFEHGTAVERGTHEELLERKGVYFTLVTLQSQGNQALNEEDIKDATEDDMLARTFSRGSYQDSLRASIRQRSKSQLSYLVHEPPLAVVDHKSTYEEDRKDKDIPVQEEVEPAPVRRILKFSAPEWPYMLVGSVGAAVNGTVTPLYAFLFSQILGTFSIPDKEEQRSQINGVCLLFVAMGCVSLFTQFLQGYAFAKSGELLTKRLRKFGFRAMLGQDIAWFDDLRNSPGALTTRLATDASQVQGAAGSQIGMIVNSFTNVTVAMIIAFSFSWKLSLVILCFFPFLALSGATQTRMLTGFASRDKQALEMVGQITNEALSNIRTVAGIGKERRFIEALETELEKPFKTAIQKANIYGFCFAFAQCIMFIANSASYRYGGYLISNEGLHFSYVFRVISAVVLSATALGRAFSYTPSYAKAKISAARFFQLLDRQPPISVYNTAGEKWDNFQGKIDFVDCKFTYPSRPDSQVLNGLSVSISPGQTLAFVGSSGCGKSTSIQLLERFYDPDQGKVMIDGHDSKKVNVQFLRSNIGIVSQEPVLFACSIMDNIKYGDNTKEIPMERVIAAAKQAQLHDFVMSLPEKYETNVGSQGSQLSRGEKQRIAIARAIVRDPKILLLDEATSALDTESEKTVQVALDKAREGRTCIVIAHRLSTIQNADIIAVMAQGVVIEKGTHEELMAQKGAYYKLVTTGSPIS", "assay": "CLF inhibition of TC transport into ABCB11 containing Sf21 membrane vesicles", "type": "biochemical", "settings": "ATP-dependent transport, read-out: concentration of CLF at which half maximal TC transport was observed", "experimental": "FIGS. 5A and 5B show CLF inhibition of DNP-SG and TC transport into ABCC2 (A) and ABCB11 (B) protein containing Sf21 membrane vesicles respectively. The values are expressed as a percentage of maximal ATP-dependent transport. Significance was tested using two-sided Student's t-test: *P<0.05 for transport in the presence vs. absence of inhibitor.\nas §1, with “Membrane vesicle preparation was as described by de Waart et al. [Liver Int 2006 April; 26(3):362-368].” left out\nTransport studies with membrane vesicles were performed using the rapid filtration technique as described by Heijn M et al. [Am J Physiol 1992 January; 262(1 Pt 1):C104-C110]. Radiolabel was measured with a scintillation counter. […] Samples were pipetted in 96-well plates (Kartell, Noviglio, Italy) and the amount CLF quantitated by measurement of fluorescence at λexe 485 nm and λcm 520 nm using a NovoStar (BMG-labtech, Offenburg, Germany)."}},
  "data": [
    {"smiles": "CC(CCC(=O)NC(CCCCNC(=S)Nc1ccc(-c2c3ccc(=O)cc-3oc3cc(O)ccc23)c(C(=O)O)c1)C(=O)O)C1CCC2C3C(O)CC4CC(O)CCC4(C)C3CC(O)C12C", "note": "(stereo not drawn) [CLF, cholyl lysyl fluorescein]", "values": [
      {"measurement": "Vmax of ABCC3 mediated transport of CLF", "setting": "ABCC3; 30 μg total protein, presence or absence of 4 mmol/L ATP", "result": "188±55", "unit": "μmol CLF/mg protein/min"},
      {"measurement": "CLF transport in ABCC3 containing membrane vesicles", "setting": "ABCC3; compared to control wild type Sf21 membrane vesicles", "result": "much higher CLF transport rates"},
      {"measurement": "uptake of CLF into OATP1B3 expressing cells", "setting": "OATP1B3; 1 μmol/L CLF, 1 or 5 minutes", "result": "clear uptake"},
      {"measurement": "Vmax of OATP1B3 mediated CLF transport", "setting": "OATP1B3; 45 seconds, mean of three independent determinations", "result": "213±42"},
      {"measurement": "Km at 45 seconds", "setting": "OATP1B3; human, CHO cells expressing OATP1B3, 45 seconds, mean of three independent determinations, read-out: Km of OATP1B3 mediated CLF transport", "result": "4.6 ± 2.7", "unit": "µM"},
      {"measurement": "IC50", "setting": "ABCB11", "result": "~10", "unit": "µM"}
    ]}
  ]
}
